Measurements reported in EP2359864B1, “Targeting Vector-Phospholipid Conjugates” (Bracco Suisse SA, priority 2005, dated 2019).
Where two headings read alike, the source gives them in different places. One block for each molecule: values may come before it. Numbered stars: 1 amine (or outer) side, 2 acyl side, 3 side chain; on linkers, the order of the positions; unused ones are H or OH. Side chains are listed from the residue outwards. * marks the point of attachment. DSPE = CCCCCCCCCCCCCCCCCC(=O)OC[C@H](COP(=O)(O)OCCN*)OC(=O)CCCCCCCCCCCCCCCCC; Glutaryl = O=C(CCCC(=O)[*:2])[*:1]

What was measured:
KDR [1] = experiment: Binding affinity of peptide monomers to KDR (statement only); conditions: statement in the description, no data shown
[2] = system: KDR receptor expressed on the endothelium of neovessels; experiment: In vivo ultrasound imaging of KDR-targeted contrast agents, rabbit VX2 tumor model; design: species or system New Zealand rabbits; conditions: confirmed using echographic examination of VX2 tumors in rabbits
Method: The ability of ultrasound contrast agents containing KDR binding lipopeptides of the invention to bind to KDR-expressing tissue in vivo was assessed using a known model of angiogenesis: the rabbit VX2 tumor model.
A known model of angiogenic tissue was used to examine the ability of the KDR-targeted ultrasound microbubbles to localize to and provide an image of angiogenic tissue. The VX2 rabbit carcinoma was serially implanted in the dorsal muscle of New Zealand rabbits (Charles River Laboratories, France) weighting 2.5/3kg.
Tumor was surgically removed, placed into McCoy's culture medium containing 10% fetal calf serum, antibiotics, 1.5 mM Glutamax I and cut into small pieces that were rinsed to remove blood and debris. Then tumor pieces (3 to 5 cm^3) were placed in a 50 ml Falcon tube containing 5 mL of complete medium. The tumor tissue was ground (Polytron) until no more solid pieces were visible. The murky fluid was centrifuged for 5 minutes at 300g and the supernatant discarded. Seven mL of fresh medium was added per 5 mL of pellet.
Rabbits received first 0.3 mL of Vetranquil (Acepromazine, Sanofi, injected intramuscularly) and were then anesthetized with an intramuscular injection of Ketaminol®5/Xylazine (Veterinaria AG/Sigma) mixture (50/10 mg/mL, 0.7 mL/kg). One hundred microliters of VX2 tumor homogenate was injected intramuscularly. Fifteen days after implantation of VX2 tumors, animals were anesthetized again with the same mixture, plus subcutaneous injection of 50% Urethane (2mL/kg, s.c.) (Sigma) for imaging experiments. […]
After bubble injection (0.1 µL/kg of gas) using the preparations of either Example 16 or Example 17, insonation was stopped allowing bubbles to accumulate for 25 minutes. […] The amount of free circulating bubbles was then assessed by recording the signal obtained after 20 sec accumulation without insonation. Video frames from VX2 tumor imaging experiments were captured with video-capture and analysed with Image-Pro Plus 2.0 software. […]

[3] = Storage stability: formation of lyso- compound (analytical HPLC); assay type: physicochemical; conditions: after 5 days at room temperature; material after Zorbax C-3 preparative HPLC
Method: The present invention provides methods for producing dimeric peptide-phospholipid conjugates having very low levels of TFA. While certain methods provide for the synthesis and purification of such conjugates on a gram scale, formation of a lyso- version of the conjugates has been observed upon storage of lyophilized material at 5°C or upon storage of aqueous solutions of the conjugates. It is believed that the lyso- compound is formed by TFA-promoted acid hydrolysis of one of the phospholipid fatty acid esters in dimer peptide-phospholipid conjugates.
Materials used and conditions for the analytical HPLC system include the following: Column: Zorbax 300SB C-3; 3 mm i.d. x 150 mm; 3.5 µm particle; Eluent A : H2O (HPLC Grade with 0.1% TFA by volume); Eluent B: CH3CN (0.1% TFA by volume). Elution: Initial condition: 50% B then a linear gradient of 50-90% B over 3 min, hold at 90% B for 11 min; Flow rate: 0.5 mL/min; Detection: UV at 220 nm. Ret. time: (Compound (21)): 6.77 min, Rt (lyso): 4.06 min.
The fractions that contained (21) were combined and lyophilized to give a white fluffy solid. This was dissolved in water-acetonitrile, then lyophilized again. This provided 70 mg product devoid of the lyso- compound. The recovery was about 70%. After chromatography was completed, the system was washed with 95% B for 15 min at a flow rate of 30 mL/min. […]

KDR [4] = conditions: as shown in co-pending U.S. Application No. 10/661,156; cited from earlier work
[5] = target: Full-length KDR on transfected 293H cells (UniProt P35968); experiment: static binding of targeted microbubbles (DPPE/DPPG envelope) on KDR-transfected 293H cells, 50% human plasma, microscopy
[6] = target: Full-length KDR on transfected 293H cells (UniProt P35968); experiment: static binding of targeted microbubbles (DSPC/DPPG envelope) on KDR-transfected 293H cells minus mock-transfected cells
[7] = target: Full-length KDR on transfected 293H cells (UniProt P35968); experiment: static binding of targeted microbubbles (DSPC/DPPG envelope) on KDR-transfected 293H cells, 50% human plasma, microscopy
[8] = target: Full-length KDR on transfected 293H cells (UniProt P35968); experiment: static binding of targeted microbubbles (DPPE/DPPG envelope) on KDR-transfected 293H cells minus mock-transfected cells

Sequence of UniProt P35968 (P35968 20-1356 limits assumed): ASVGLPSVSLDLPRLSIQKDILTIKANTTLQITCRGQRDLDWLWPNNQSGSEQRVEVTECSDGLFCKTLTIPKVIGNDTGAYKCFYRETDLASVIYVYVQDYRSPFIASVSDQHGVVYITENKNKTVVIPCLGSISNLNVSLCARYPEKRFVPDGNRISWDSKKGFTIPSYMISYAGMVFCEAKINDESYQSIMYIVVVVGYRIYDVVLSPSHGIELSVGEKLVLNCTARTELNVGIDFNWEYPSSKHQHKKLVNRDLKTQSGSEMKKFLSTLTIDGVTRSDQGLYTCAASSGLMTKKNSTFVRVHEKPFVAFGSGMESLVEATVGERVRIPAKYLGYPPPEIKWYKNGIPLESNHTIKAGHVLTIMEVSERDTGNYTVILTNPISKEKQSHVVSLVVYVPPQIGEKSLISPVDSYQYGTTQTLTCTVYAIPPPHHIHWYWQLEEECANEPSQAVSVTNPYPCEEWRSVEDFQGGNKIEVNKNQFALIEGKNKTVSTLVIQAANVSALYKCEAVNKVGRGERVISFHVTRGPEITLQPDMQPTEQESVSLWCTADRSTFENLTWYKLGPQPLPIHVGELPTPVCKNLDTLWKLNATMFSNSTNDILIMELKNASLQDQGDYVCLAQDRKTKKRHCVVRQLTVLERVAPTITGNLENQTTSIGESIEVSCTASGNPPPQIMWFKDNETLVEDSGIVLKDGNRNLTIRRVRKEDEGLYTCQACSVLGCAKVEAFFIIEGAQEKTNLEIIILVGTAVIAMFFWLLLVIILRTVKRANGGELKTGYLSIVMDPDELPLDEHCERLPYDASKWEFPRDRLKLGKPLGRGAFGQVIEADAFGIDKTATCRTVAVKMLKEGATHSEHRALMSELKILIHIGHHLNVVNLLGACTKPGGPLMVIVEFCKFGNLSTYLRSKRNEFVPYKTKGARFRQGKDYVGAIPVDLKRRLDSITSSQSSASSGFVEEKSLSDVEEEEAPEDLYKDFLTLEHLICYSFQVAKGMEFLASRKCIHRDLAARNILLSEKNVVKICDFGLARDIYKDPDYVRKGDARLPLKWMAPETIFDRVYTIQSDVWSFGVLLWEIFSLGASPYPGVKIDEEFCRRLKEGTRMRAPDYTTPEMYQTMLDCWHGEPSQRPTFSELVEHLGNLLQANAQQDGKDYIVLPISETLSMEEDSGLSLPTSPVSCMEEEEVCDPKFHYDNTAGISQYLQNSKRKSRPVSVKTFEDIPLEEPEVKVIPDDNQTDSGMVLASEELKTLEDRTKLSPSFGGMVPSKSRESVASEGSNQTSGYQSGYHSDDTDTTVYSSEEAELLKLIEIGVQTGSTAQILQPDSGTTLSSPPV

binding affinity to KDR (KDR [1]): high affinity
Molecule: CC[C@H](C)[C@H](NC(=O)[C@H](CCC(=O)O)NC(=O)[C@H](CC(=O)O)NC(=O)[C@H](Cc1ccc(O)cc1)NC(=O)[C@H](Cc1ccc(O)cc1)NC(=O)[C@H](Cc1c[nH]c2ccccc12)NC(=O)[C@H](CC(=O)O)NC(=O)[C@H](CCC(N)=O)NC(=O)[C@H](C)NC(=O)[C@H](CCCNC(=N)N)NC(C)=O)C(=O)N[C@@H](CC(C)C)C(=O)N[C@@H](CO)C(=O)N[C@@H](CCSC)C(=O)N[C@@H](C)C(=O)N[C@@H](CC(=O)O)C(=O)N[C@@H](CCC(N)=O)C(=O)N[C@@H](CC(C)C)C(=O)N[C@@H](CCCNC(=N)N)C(=O)N[C@@H](Cc1c[nH]cn1)C(=O)N[C@@H](C)C(=O)N[C@@H](Cc1ccccc1)C(=O)N[C@@H](CC(C)C)C(=O)N[C@@H](CO)C(=O)NCC(=O)NCC(=O)NCC(=O)NCC(=O)NCC(=O)N[C@@H](CCCCN)C(N)=O [(2)]

Molecule: Ac-AGPTWCEDDWYYCWLFGTGGGK{Ac-VCWEDSWGGEVCFRYDP-GGGK[-Adoa-Adoa-Glut-K(DSPE-PEG2000-NH-Glut)]-NH2 cyclic (2-12) disulfide}-NH2 cyclic (6-13) disulfide [(11)]
KDR binding of gas filled microbubbles formulated with the conjugate [2]: high KDR binding

Molecule: Ac-AGPTWCEDDWYYCWLFGTGGGK{Ac-VCWEDSWGGEVCFRYDPGGGK[-Adoa-Adoa-Glut-K(DSPE-PEG2000-NH-Glut)]-NH2 cyclic (2-12) disulfide}-NH2 cyclic (6-13) disulfide [(21)]
formation of lyso- compound [3]: no lyso- compound formed

Molecule: Ac-AQDWYYDEILSMADQLRHAFLSGGGGGK(DSPE-PEG2000-NH-Glut)-NH2 [(31)]
KDR binding of gas filled microbubbles formulated with the conjugate [2]: high KDR binding

Molecule: Ac-AQDWYYDEILSMADQLRHAFLSGGGGGK-NH2 [(32)]
binding affinity to KDR (KDR [4]): high affinity

Molecule: Ac-RAQDWYYDEILSMADQLRHAFLSGGGGGK(DSPE-PEG2000-NH-Glut)-NH2 (not fully specified; N-acetyl, C-amide, DSPE-PEG2000-NH-Glut lipid conjugate) [(1)]
KDR binding of gas filled microbubbles formulated with the conjugate [2]: high KDR binding

% of surface covered by bound microbubbles (KDR) [5]: 23.6%
% of surface covered by bound microbubbles (KDR-Mock) [6]: 27.7%
% of surface covered by bound microbubbles (KDR) [7]: 28%
% of surface covered by bound microbubbles (KDR-Mock) [8]: 23.5%
B1: monomeric peptide phospholipid conjugate (31) (peptide)
peptide: Ac-AQDWYYDEILSMADQLRHAFLSGGGGGK([Glutaryl-PEG2000-DSPE])-NH2
